target: DOR (Homo sapiens, UniProt P41143); experiment: Opioid secondary binding, DOR (Table 4); settings: Opioid secondary binding activity for Formula 10 analogs
Sequence (P41143 whole entry): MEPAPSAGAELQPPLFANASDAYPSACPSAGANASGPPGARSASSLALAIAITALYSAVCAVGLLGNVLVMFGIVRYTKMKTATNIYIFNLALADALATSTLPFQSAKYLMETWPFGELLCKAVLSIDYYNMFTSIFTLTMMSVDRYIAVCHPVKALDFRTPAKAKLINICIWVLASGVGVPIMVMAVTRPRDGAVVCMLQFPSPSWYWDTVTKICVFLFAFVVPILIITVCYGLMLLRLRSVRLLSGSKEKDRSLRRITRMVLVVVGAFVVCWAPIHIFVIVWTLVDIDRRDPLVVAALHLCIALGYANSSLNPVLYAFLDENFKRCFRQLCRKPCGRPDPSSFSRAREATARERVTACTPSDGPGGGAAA

SMILES | Ki [nM]
NC(=O)c1ccccc1NC(=O)[C@@H]1CC=C[C@@H]2CCN(Cc3ccccc3)C(=O)[C@@H]21 (racemic) [compound 12123] | 5930
O=C(Nc1ccc(Cl)cc1)[C@@H]1CC=C[C@@H]2CCN(CC3CC3)C(=O)[C@@H]21 (racemic) [compound 12092] | 3230
CC(c1ccccc1)N1CCC2C=CCC(C(=O)Nc3ccc(F)c(F)c3)C2C1=O (mixture of isomers) [compound 12166] | 3200
O=C(Nc1ccc([N+](=O)[O-])cc1)[C@@H]1CC=C[C@@H]2CCN(c3ccccc3)C(=O)[C@@H]21 (racemic) [compound 11947] | 141
O=C(NCc1cccc(Br)c1)[C@@H]1CC=C[C@@H]2CCN(c3ccccc3)C(=O)[C@@H]21 (racemic) [compound 11949] | 302
O=C(Nc1cc(F)c(F)c(F)c1)[C@@H]1CC=C[C@@H]2CCN(c3ccccc3)C(=O)[C@@H]21 (racemic) [compound 12098] | 289
O=C(Nc1cccnc1)[C@@H]1CC=C[C@@H]2CCN(C3CCCCC3)C(=O)[C@@H]21 (racemic) [compound 11921] | 836
O=C(Nc1cccnc1)[C@@H]1CC=C[C@@H]2CCN(Cc3ccccc3)C(=O)[C@@H]21 (racemic) [compound 11933] | 3530
O=C(Nc1ccc(Cl)cc1)[C@@H]1CC=C[C@@H]2CCN(c3ccccc3)C(=O)[C@@H]21 (racemic) [compound 12097] | 168
O=C(Nc1ccccc1)[C@@H]1CC=C[C@@H]2CCCN(C3CCCCC3)C(=O)[C@@H]21 (racemic) [compound 14423] | 8840
O=C(Nc1ccc(F)c(C(F)(F)F)c1)[C@@H]1CC=C[C@@H]2CCN(Cc3ccccc3)C(=O)[C@@H]21 (racemic) [compound 13474] | 192
O=C(Nc1ccc(Cl)c(C(F)(F)F)c1)[C@@H]1CC=C[C@@H]2CN(Cc3ccccc3)C(=O)[C@@H]21 (racemic) [compound 14433] | 1940
O=C(Nc1ccc(Cl)c(C(F)(F)F)c1)[C@@H]1CC=C[C@@H]2CN(C3CCCCC3)C(=O)[C@@H]21 (racemic) [compound 14439] | 5350
CC(C)N(C(=O)[C@@H]1CC=C[C@@H]2CCN(c3ccccc3)C(=O)[C@@H]21)C1CCCCC1 (racemic) [compound 12140] | 416
O=C(Nc1ccc(Br)c(C(F)(F)F)c1)[C@@H]1CC=C[C@@H]2CN(Cc3ccccc3)C(=O)[C@@H]21 (racemic) [compound 14432] | 2770
CN(C)C(=O)[C@@H]1CC=C[C@@H]2CCN(C3CCCCC3)C(=O)[C@@H]21 (racemic) [compound 12086] | > 10000
Cc1ccc(NC(=O)[C@@H]2CC=C[C@@H]3CCN(Cc4ccccc4F)C(=O)[C@@H]32)cc1C(F)(F)F (racemic) [compound 13479] | 9.5
O=C(Nc1cc(F)c(F)c(F)c1)[C@@H]1CC=C[C@@H]2CCN(CC3CC3)C(=O)[C@@H]21 (racemic) [compound 12093] | 4370
O=C(NCC1CC1)[C@@H]1CC=C[C@@H]2CCN(C3CCCCC3)C(=O)[C@@H]21 (racemic) [compound 12085] | 475
O=C(Nc1ccccc1)[C@@H]1CC=C[C@@H]2CN(Cc3ccccc3)C(=O)[C@@H]21 (racemic) [compound 14429] | 7020
O=C(NCC1CC1)[C@@H]1CC=C[C@@H]2CCN(Cc3ccccc3)C(=O)[C@@H]21 (racemic) [compound 12100] | 539
Cc1cc(C)c(NC(=O)[C@@H]2CC=C[C@@H]3CCN(c4ccccc4)C(=O)[C@@H]32)c(C)c1 (racemic) [compound 11951] | 4300
Cc1cc(C)c(NC(=O)[C@@H]2CC=C[C@@H]3CCN(Cc4ccccc4)C(=O)[C@@H]32)c(C)c1 (racemic) [compound 11957] | 3220

SMILES | Ki [nM]
CC(C)N(C(=O)[C@@H]1CC=C[C@@H]2CCN(CC3CCCCC3)C(=O)[C@@H]21)C1CCCCC1 (racemic) [compound 12134] | 1630
O=C(Nc1ccc(Cl)c(C(F)(F)F)c1)[C@@H]1CC=C[C@@H]2CCN(CC3CC3)C(=O)[C@@H]21 (racemic) [compound 12156] | 788
Cc1ccc(CNC(=O)[C@@H]2CC=C[C@@H]3CCN(Cc4ccccc4)C(=O)[C@@H]32)cc1 (racemic) [compound 11956] | 2360
O=C(NC12CC3CC(CC(C3)C1)C2)[C@@H]1CC=C[C@@H]2CCN(CC3CC3)C(=O)[C@@H]21 (racemic) [compound 11940] | 701
CC(c1ccccc1)N1CCC2C=CCC(C(=O)Nc3nccs3)C2C1=O (mixture of isomers) [compound 12168] | 1450
O=C(Nc1ccc(Br)c(C(F)(F)F)c1)[C@@H]1CC=C[C@@H]2CN(C3CCCCC3)C(=O)[C@@H]21 (racemic) [compound 14438] | 1920
O=C(NCc1ccccc1)[C@@H]1CC=C[C@@H]2CCN(Cc3ccccc3)C(=O)[C@@H]21 (racemic) [compound 11930] | 739
COc1ccc(-c2cccc(CN3CC[C@H]4C=CC[C@@H](C(=O)Nc5ccc(Cl)c(C(F)(F)F)c5)[C@H]4C3=O)c2)cc1 (racemic) [compound 12161] | 2130
CCOC(=O)c1ccc(NC(=O)[C@@H]2CC=C[C@@H]3CCN(Cc4ccccc4)C(=O)[C@@H]32)cc1 (racemic) [compound 12124] | 7820
O=C(NC12CC3CC(CC(C3)C1)C2)[C@@H]1CC=C[C@@H]2CCN(c3ccccc3)C(=O)[C@@H]21 (racemic) [compound 11946] | 116
Cc1ccc(NC(=O)[C@@H]2CC=C[C@@H]3CCN(c4ccccc4)C(=O)[C@@H]32)cc1Cl (racemic) [compound 11925] | 15
O=C(Nc1cccc(Cl)c1)[C@@H]1CC=C[C@@H]2CN(C3CCCCC3)C(=O)[C@@H]21 (racemic) [compound 14437] | 962
Cc1ccc(NC(=O)[C@@H]2CC=C[C@@H]3CCN(Cc4ccccc4)C(=O)[C@@H]32)c(F)c1F (racemic) [compound 13476] | 559
CCOC(=O)C1CCCCN1C(=O)[C@@H]1CC=C[C@@H]2CCN(Cc3ccccc3)C(=O)[C@@H]21 (mixture of isomers) [compound 12127] | > 10000
NC(=O)c1ccccc1NC(=O)[C@@H]1CC=C[C@@H]2CCN(c3ccccc3)C(=O)[C@@H]21 (racemic) [compound 12117] | 648
O=C(Nc1nccs1)[C@@H]1CC=C[C@@H]2CCN(CC3CC3)C(=O)[C@@H]21 (racemic) [compound 12157] | 3500
O=C(Nc1ccccc1)[C@@H]1CC=C[C@@H]2CCN(CC3CC3)C(=O)[C@@H]21 (racemic) [compound 12153] | 6620
O=C(Nc1cc(F)c(F)c(F)c1)[C@@H]1CC=C[C@@H]2CCN(Cc3ccccc3)C(=O)[C@@H]21 (racemic) [compound 12103] | 180
COc1ccc(CNC(=O)[C@@H]2CC=C[C@@H]3CCN(Cc4ccccc4)C(=O)[C@@H]32)cc1OC (racemic) [compound 12126] | > 10000
O=C(Nc1cnccn1)[C@@H]1CC=C[C@@H]2CCN(CC3CCCCC3)C(=O)[C@@H]21 (racemic) [compound 12138] | 1650
O=C(Nc1cccc(Cl)c1)[C@@H]1CC=C[C@@H]2CCN(CC3CC3)C(=O)[C@@H]21 (racemic) [compound 12154] | 1180
O=C(Nc1ccccc1)[C@@H]1CC=C[C@@H]2CCN(Cc3ccccc3)C(=O)[C@@H]21 (racemic) [compound 12125] | > 10000
CN(C(=O)[C@@H]1CC=C[C@@H]2CCN(c3ccccc3)C(=O)[C@@H]21)c1ccccc1 (racemic) [compound 12119] | 4010
